Test results published in patent publication US8124831B2, “Transgenic mice carrying functional single nucleotide polymorphisms in brain-specific tryptophan hydroxylase” (Duke University, priority 2006, dated 2012).

Test system: R439H Tph2 knock-in mice
Assay: Tail suspension test after drug administration
Type: in vivo, mouse
Details: HO Tph2 knock-in mice; 30 min following administration; fluoxetine 5 mg/kg, TDZD 10 mg/kg (i.p.); vs vehicle (FIG. 7)
Description: Tail suspension test: Mice were tested in a tail suspension apparatus (Med-Associates, St. Albans, Vt.) as described (Crowley et al., 2004, Pharmacol. Biochem. Behav. 78:269-274). All mice were weighed and tail-marked 24 hrs before testing. Animals were brought into the testing room 4 hrs before injections. Pilot studies were used to determine the optimal automated threshold settings for immobility by comparing scores rated manually with scores tabulated simultaneously by the apparatus. Behavior was scored as time spent in immobility (sec) for the total period of the test.
Administration of anti-depressants or glycogen synthase kinase 3 inhibitors alleviates behavioral differences. Fluoxetine (Tocris Cookson Inc., Ellisville, Mo.) was dissolved in distilled water. Thiadiazolidinone (TDZD) (Calbiochem, Cambridge, Mass.) was injected (i.p.) following suspension in a minimal amount of Tween and diluted to volume with distilled water as previously described (Beaulieu et al., 2004, Proc. Natl Acad. Sci. USA 101:5099-5104). Corresponding vehicle solutions were injected in control animals. Mice were treated with vehicle or drug 30 min before testing. Behavioral testing was performed as described above.

| Structure (SMILES) | immobility times in the tail suspension test |
| --- | --- |
| Cn1sc(=O)n(Cc2ccccc2)c1=O [TDZD, thiadiazolidinone] | comparable reduction of immobility times |
| CNCCC(Oc1ccc(C(F)(F)F)cc1)c1ccccc1 (centres unmarked) [fluoxetine] | comparable reduction of immobility times |
